Assays:
ragweed = experiment: Test A pre-/postemergence herbicide test; assay type: in vivo, Ambrosia elatior; settings: for Plant response rating, Ragweed: 0 to 100 scale
Method in brief: (§1)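 Approximately 10 days after treatment in the greenhouse, plants were compared with untreated controls and given a 0–100 visual injury rating. Applications: preemergence directed soil spray; postemergence on 2–10 cm plants at the one- to two-leaf stage.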

wheat = experiment: Test A pre-/postemergence herbicide test; assay type: in vivo, Triticum aestivum; settings: Postemergence
Method in brief: as §1

corn = experiment: Test A pre-/postemergence herbicide test; assay type: in vivo, Zea mays; settings: Postemergence
Method in brief: as §1

ryegrass, Italian = experiment: Test A pre-/postemergence herbicide test; assay type: in vivo, Lolium multiflorum; settings: for Plant response rating, Ryegrass, Italian: 0 to 100 scale
Method in brief: as §1

barnyardgrass [1] = experiment: Test C flooded paddy test; assay type: in vivo, Echinochloa crus-galli; settings: Flood
Method in brief: (§2)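 Visual injury scored against controls after 13 to 15 days in the greenhouse, using 0 (no effect) to 100 (complete control). Test compounds went straight into paddy water held 3 cm above the soil surface on 2-leaf-stage plants, with that flood depth maintained for the whole test.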

kochia = experiment: Test A pre-/postemergence herbicide test; assay type: in vivo, Kochia scoparia; settings: for Plant response rating, Kochia: 0 to 100 scale
Method in brief: as §1

blackgrass = experiment: Test A postemergence herbicide test; assay type: in vivo, Alopecurus myosuroides
Method in brief: (§3)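 Young potted plants in a loam–sand mix, one- to two-leaf stage and 2–10 cm tall, receive the test chemical postemergence and stay in a greenhouse for approximately 10 days. Injury is then judged by eye against untreated plants, scored 0 (none) to 100 (complete control).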

giant foxtail = experiment: Test A pre-/postemergence herbicide test; assay type: in vivo, Setaria faberii; settings: for Plant response rating, Foxtail, Giant: 0 to 100 scale
Method in brief: as §1

barnyardgrass [2] = experiment: Test A pre-/postemergence herbicide test; assay type: in vivo, Echinochloa crus-galli
Method in brief: as §1

ducksalad = experiment: Test C flooded paddy test; assay type: in vivo, Heteranthera limosa; settings: Flood
Method in brief: as §2

sedge, umbrella = experiment: Test C flooded paddy test; assay type: in vivo, Cyperus difformis; settings: Flood
Method in brief: as §2

pigweed = experiment: Test A pre-/postemergence herbicide test; assay type: in vivo, Amaranthus retroflexus; settings: for Plant response rating, Pigweed: 0 to 100 scale
Method in brief: as §1

galium = experiment: Test A postemergence herbicide test; assay type: in vivo, Galium aparine
Method in brief: as §3

rice = experiment: Test C flooded paddy test; assay type: in vivo, Oryza sativa; settings: Flood
Method in brief: as §2

[3] = Postemergence, 125 g ai/ha, 0 no effect, 100 complete control
[4] = Preemergence, 125 g ai/ha, visual rating on 0 to 100 scale (0 no effect, 100 complete control)
[5] = 125 g ai/ha, 0 to 100 scale, 0 no effect, 100 complete control
[6] = 500 g ai/ha, 0 to 100 scale (0 no effect, 100 complete control)
[7] = 125 g ai/ha, scale of 0 to 100 where 0 is no effect and 100 is complete control, 13 to 15 days

O=C1NCC(c2cccc(C(F)(F)F)c2)C1C(=O)Nc1nnc(C(F)(F)F)s1 (racemic) [Compound 112]
0: Plant response rating, Ragweed (ragweed; [3]) | Ragweed plant response rating (0 to 100 scale, 0 is no effect, 100 is complete control) (ragweed; Postemergence, 500 g ai/ha) | Ragweed plant response rating (ragweed; [4]) | Plant response rating, Ragweed (ragweed; preemergence, 500 g ai/ha) | Plant response rating, Wheat (wheat; [5]) | Wheat plant response rating (0 to 100 scale, 0 is no effect, 100 is complete control) (wheat; 500 g ai/ha) | Plant response rating, Corn (corn; [5]) | Plant response rating, Corn (corn; [6]) | Plant response rating, Ryegrass, Italian (ryegrass, Italian; [3]) | Ryegrass, Italian plant response rating (0 to 100 scale, 0 is no effect, 100 is complete control) (ryegrass, Italian; Postemergence, 500 g ai/ha) | Ryegrass, Italian plant response rating (ryegrass, Italian; [4]) | Plant response rating, Ryegrass, Italian (ryegrass, Italian; preemergence, 500 g ai/ha) | Plant response rating, Barnyardgrass (barnyardgrass [1]; [7]) | Plant response rating, Barnyardgrass (barnyardgrass [1]; 250 g ai/ha, scale 0 to 100) | Plant response rating, Barnyardgrass (barnyardgrass [1]; 500 g ai/ha, scale 0 to 100) | Plant response rating, Barnyardgrass (barnyardgrass [1]; 1000 g ai/ha, scale 0 to 100) | Plant response rating, Kochia (kochia; [3]) | Kochia plant response rating (0 to 100 scale, 0 is no effect, 100 is complete control) (kochia; Postemergence, 500 g ai/ha) | Kochia plant response rating (kochia; [4]) | Plant response rating, Kochia (kochia; preemergence, 500 g ai/ha) | Plant response rating, Blackgrass (blackgrass; [5]) | Plant response rating, Blackgrass (blackgrass; [6]) | Plant response rating, Foxtail, Giant (giant foxtail; [3]) | Foxtail, Giant plant response rating (0 to 100 scale, 0 is no effect, 100 is complete control) (giant foxtail; Postemergence, 500 g ai/ha) | Foxtail, Giant plant response rating (giant foxtail; [4]) | Plant response rating, Foxtail, Giant (giant foxtail; preemergence, 500 g ai/ha) | Plant response rating, Barnyardgrass (barnyardgrass [2]; Postemergence, 125 g ai/ha, 0 to 100 scale, 0 no effect, 100 complete control) | Plant response rating, Barnyardgrass (barnyardgrass [2]; Postemergence, 500 g ai/ha, 0 to 100 scale (0 no effect, 100 complete control)) | Barnyardgrass plant response rating (barnyardgrass [2]; [4]) | Plant response rating, Barnyardgrass (barnyardgrass [2]; preemergence, 500 g ai/ha, 0 to 100 scale (0 no effect, 100 complete control)) | Plant response rating, Ducksalad (ducksalad; [7]) | Plant response rating, Ducksalad (ducksalad; 250 g ai/ha, scale 0 to 100) | Plant response rating, Ducksalad (ducksalad; 500 g ai/ha, scale 0 to 100) | Plant response rating, Ducksalad (ducksalad; 1000 g ai/ha, scale 0 to 100) | Plant response rating, Sedge, Umbrella (sedge, umbrella; [7]) | Plant response rating, Sedge, Umbrella (sedge, umbrella; 250 g ai/ha, scale 0 to 100) | Plant response rating, Sedge, Umbrella (sedge, umbrella; 500 g ai/ha, scale 0 to 100) | Plant response rating, Sedge, Umbrella (sedge, umbrella; 1000 g ai/ha, scale 0 to 100) | Plant response rating, Pigweed (pigweed; [3]) | Pigweed plant response rating (0 to 100 scale, 0 is no effect, 100 is complete control) (pigweed; Postemergence, 500 g ai/ha) | Pigweed plant response rating (pigweed; [4]) | Plant response rating, Pigweed (pigweed; preemergence, 500 g ai/ha) | Plant response rating, Galium (galium; [5]) | Galium plant response rating (0 to 100 scale, 0 is no effect, 100 is complete control) (galium; 500 g ai/ha) | Plant response rating, Rice (rice; [7]) | Plant response rating, Rice (rice; 250 g ai/ha, scale 0 to 100) | Plant response rating, Rice (rice; 500 g ai/ha, scale 0 to 100) | Plant response rating, Rice (rice; 1000 g ai/ha, scale 0 to 100)
